Test results published in patent US9409914B2, “Triazolo[4,5-d]pyrimidine derivatives” (Merck Patent GmbH, priority 2012, dated 2016).
pIC50: −log10 of the molar value.

Target: GCN2 (Homo sapiens, UniProt Q9P2K8)
Assay: GCN2 enzyme assay (TR-FRET Lanthascreen, phosphorylation of GFP-eIF2alpha)
Type: biochemical
Conditions: 10 μM ATP, 80 nM GFP-eIF2alpha, 30 nM GCN2, room temperature
Description: GCN2: Assay principle & conditions
This assay can quantificate the activity of the serin kinase GCN2 (general control non-derepressible-2).
This kinase is involved in the stress metabolism of cells. It is activated upon starvation (amino acid depletion). Its natural substrate is eIF2a (eukaryotic initiation factor 2 alpha subunit), a translation factor, which gets activated (phosphorylated) by GCN2 in case of an amino acid bottleneck in the cells. This in turn leads to a halt of the protein synthesis. Inhibition of GCN2 results in stopping this mechanism: The cell can not stop protein production upon “starvation” stress.
The assay is run in two steps: the enzymatic reaction and the detection step. In the first step GCN2 is incubated with 10 μM ATP and 80 nM of the GFP-labelled substrate eIF2alpha at room temperature.
The enzymatic reaction is stopped by addition of EDTA. The amount of phosphorylated eIF2alpha is determined by TR-FRET (Lanthascreen): A complex is formed consisting of antibody and GFP labelled phospho-eIF2a, which allows a FRET upon exitation at 340 nm.
The GCN2-activity is directly proportional to the ratio of fluorescence units at the emission wavelengthh 520 nm (phosphopeptide-sensitive wavelength=emission of GFP) to the units at 495 nm (reference wavelength=emission of Terbium-chelate).
Final Concentrations in the Enzymatic Reaction

GCN2, sequence (Q9P2K8 whole entry, species assumed): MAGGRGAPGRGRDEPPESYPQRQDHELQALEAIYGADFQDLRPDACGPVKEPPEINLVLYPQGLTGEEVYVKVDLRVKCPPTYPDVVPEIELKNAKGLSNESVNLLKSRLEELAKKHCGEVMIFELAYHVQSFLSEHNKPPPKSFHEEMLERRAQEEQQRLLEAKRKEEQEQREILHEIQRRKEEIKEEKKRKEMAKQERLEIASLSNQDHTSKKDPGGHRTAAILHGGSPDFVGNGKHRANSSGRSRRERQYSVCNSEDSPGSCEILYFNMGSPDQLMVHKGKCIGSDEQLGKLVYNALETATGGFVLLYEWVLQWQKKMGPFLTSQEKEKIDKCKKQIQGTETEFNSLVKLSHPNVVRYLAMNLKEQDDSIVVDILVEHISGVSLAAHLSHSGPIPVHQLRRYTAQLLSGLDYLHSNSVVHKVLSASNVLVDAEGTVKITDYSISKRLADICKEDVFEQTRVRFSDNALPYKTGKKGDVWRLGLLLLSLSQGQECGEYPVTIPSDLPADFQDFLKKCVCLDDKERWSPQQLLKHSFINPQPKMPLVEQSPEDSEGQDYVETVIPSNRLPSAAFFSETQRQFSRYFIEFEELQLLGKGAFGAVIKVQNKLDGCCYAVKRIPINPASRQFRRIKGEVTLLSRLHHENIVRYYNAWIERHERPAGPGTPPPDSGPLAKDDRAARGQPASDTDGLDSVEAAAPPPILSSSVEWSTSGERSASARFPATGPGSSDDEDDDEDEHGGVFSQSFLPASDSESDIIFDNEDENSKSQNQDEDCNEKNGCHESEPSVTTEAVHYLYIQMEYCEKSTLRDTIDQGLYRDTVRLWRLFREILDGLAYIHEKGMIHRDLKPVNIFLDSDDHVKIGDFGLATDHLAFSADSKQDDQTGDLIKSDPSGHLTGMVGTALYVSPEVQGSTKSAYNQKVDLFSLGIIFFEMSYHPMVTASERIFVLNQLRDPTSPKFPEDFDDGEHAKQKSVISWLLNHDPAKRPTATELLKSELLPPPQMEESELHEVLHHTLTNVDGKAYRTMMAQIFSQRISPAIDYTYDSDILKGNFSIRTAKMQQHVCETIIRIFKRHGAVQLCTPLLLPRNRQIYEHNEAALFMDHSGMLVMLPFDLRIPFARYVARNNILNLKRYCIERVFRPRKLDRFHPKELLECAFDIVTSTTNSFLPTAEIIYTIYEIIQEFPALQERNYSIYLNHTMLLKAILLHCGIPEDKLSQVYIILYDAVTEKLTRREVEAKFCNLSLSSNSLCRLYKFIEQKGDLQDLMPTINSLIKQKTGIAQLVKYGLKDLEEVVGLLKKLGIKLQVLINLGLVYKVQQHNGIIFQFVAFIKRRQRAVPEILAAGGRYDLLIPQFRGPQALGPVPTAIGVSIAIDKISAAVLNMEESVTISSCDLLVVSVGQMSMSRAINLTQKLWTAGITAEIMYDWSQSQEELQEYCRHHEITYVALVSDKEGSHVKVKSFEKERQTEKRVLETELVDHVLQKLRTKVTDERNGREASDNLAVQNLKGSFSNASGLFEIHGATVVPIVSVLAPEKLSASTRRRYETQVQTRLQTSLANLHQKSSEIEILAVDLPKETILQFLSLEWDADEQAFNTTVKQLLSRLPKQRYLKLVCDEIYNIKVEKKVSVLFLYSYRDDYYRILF

SMILES	pIC50
COc1ccc(-n2nnc3cnc(Nc4cnn([C@H]5CC[C@@H](O)CC5)c4)nc32)nc1 [Compound A141, 4-{4-[3-(5-methoxy-pyridin-2-yl)-3H-[1,2,3]triazolo[4,5-d]pyrimidin-5-ylamino]-pyrazol-1-yl}-cyclohexanol]	> 6.52
CN1CCC(n2cc(Nc3ncc4nnn(-c5ccc(S(N)(=O)=O)cc5)c4n3)cn2)CC1 [Compound A142, 4-{5-[1-(1-methyl-piperidin-4-yl)-1H-pyrazol-4-ylamino]-[1,2,3]triazolo[4,5-d]pyrimidin-3-yl}-benzenesulfonamide]	> 6.52
COc1ccc(-n2nnc3cnc(Nc4cnn([C@H]5CC[C@H](O)CC5)c4)nc32)nc1 [Compound A143, 4-{4-[3-(5-methoxy-pyridin-2-yl)-3H-[1,2,3]triazolo[4,5-d]pyrimidin-5-ylamino]-pyrazol-1-yl}-cyclohexanol]	> 6.52
CC(C)(F)c1ccc(-n2nnc3cnc(Nc4cnn(C5CCOCC5)c4)nc32)cc1 [Compound A144, {3-[4-(1-fluoro-1-methyl-ethyl)-phenyl]-3H-[1,2,3]triazolo[4,5-d]pyrimidin-5-yl}-[1-(tetrahydro-pyran-4-yl)-1H-pyrazol-4-yl]-amine]	> 6.52
O=C1COCCN1n1cc(Nc2ncc3nnn(-c4ccc5cccnc5c4)c3n2)cn1 [Compound A145, 4-[4-(3-quinolin-7-yl-3H-[1,2,3]triazolo[4,5-d]pyrimidin-5-ylamino)-pyrazol-1-yl]-morpholin-3-one]	5.52 to 6.52
Cn1ccc(-n2nnc3cnc(Nc4cnn(C5CCOCC5)c4)nc32)n1 [Compound A147, [3-(1-methyl-1H-pyrazol-3-yl)-3H-[1,2,3]triazolo[4,5-d]pyrimidin-5-yl]-[1-(tetrahydro-pyran-4-yl)-1H-pyrazol-4-yl]-amine]	5.52 to 6.52
CCn1cc(Nc2ncc3nnn(-c4ccc(C(C)(C)N)cc4)c3n2)cn1 [Compound A148, {3-[4-(1-amino-1-methyl-ethyl)-phenyl]-3H-[1,2,3]triazolo[4,5-d]pyrimidin-5-yl}-(1-ethyl-1H-pyrazol-4-yl)-amine]	5.52 to 6.52
CCOc1ccc(-n2nnc3cnc(Nc4cnn(CCN5CCOCC5=O)c4)nc32)cc1 [Compound A149, 4-(2-{4-[3-(4-ethoxy-phenyl)-3H-[1,2,3]triazolo[4,5-d]pyrimidin-5-ylamino]-pyrazol-1-yl}-ethyl)-morpholin-3-one]	> 6.52
CCOc1ccc(-n2nnc3cnc(Nc4cnn(C5CN(C(=O)COC)C5)c4)nc32)cc1 [Compound A150, 1-(3-{4-[3-(4-ethoxy-phenyl)-3H-[1,2,3]triazolo[4,5-d]pyrimidin-5-ylamino]-pyrazol-1-yl}-azetidin-1-yl)-2-methoxy-ethanone]	> 6.52
CCOc1ccc(-n2nnc3cnc(Nc4cnn(CCN5CCC(O)C5)c4)nc32)cc1 (stereo not shown) [Compound A151, 1-(2-{4-[3-(4-ethoxy-phenyl)-3H-[1,2,3]triazolo[4,5-d]pyrimidin-5-ylamino]-pyrazol-1-yl}-ethyl)-pyrrolidin-3-ol]	> 6.52
CC(C)(N)c1ccc(-n2nnc3cnc(Nc4cnn(C5CCOCC5)c4)nc32)cc1 [Compound A152, {3-[4-(1-amino-1-methyl-ethyl)-phenyl]-3H-[1,2,3]triazolo[4,5-d]pyrimidin-5-yl}-[1-(tetrahydro-pyran-4-yl)-1H-pyrazol-4-yl]-amine]	> 6.52
CN1CCC(n2cc(Nc3ncc4nnn(-c5ccc(Cl)cc5)c4n3)cn2)CC1 [Compound A153, [3-(4-chloro-phenyl)-3H-[1,2,3]triazolo[4,5-d]pyrimidin-5-yl]-[1-(1-methyl-piperidin-4-yl)-1H-pyrazol-4-yl]-amine]	> 6.52
CS(=O)(=O)N1CCC(n2cc(Nc3ncc4nnn(-c5ccc(F)c(Cl)c5)c4n3)cn2)CC1 [Compound A154, [3-(3-chloro-4-fluoro-phenyl)-3H-[1,2,3]triazolo[4,5-d]pyrimidin-5-yl]-[1-(1-methanesulfonyl-piperidin-4-yl)-1H-pyrazol-4-yl]-amine]	5.52 to 6.52
